Measurements from patent US11414384B2, “P300/CBP hat inhibitors” (Constellation Pharmaceuticals, Inc., priority 2018, dated 2022).

Tests used:
full length p300 = full length p300 (Homo sapiens (Human), UniProt Q09472); experiment: full length p300 SPA assay; type: biochemical; settings: average of at least 2 replicate titrations, read-out: FL P300 IC50
Protocol: Reactions were initiated with 12.5 μL 2 μM biotinylated H3(1-21) peptide (New England Peptide) and run for 1 hr at RT, then quenched with 20 μL stop solution (200 mM Tris pH 8.0, 200 mM EDTA, 2M NaCl, 160 μM anacardic acid). 35 μL of the reaction volume was transferred to a 384-well streptavidin FlashPlate (PerkinElmer) using a Bravo liquid handler (Velocity 11) and incubated for 1.5 hr at RT. Plates were aspirated, washed with 95 μL wash buffer (15 mM Tris pH 8.5, 0.069 μM Brij-35), aspirated, sealed, and scintillation counts read on a Topcount (PerkinElmer). Data were analyzed in Genedata to determine inhibitor IC50 values.
The full length p300 SPA assay was run following the same protocol as p300 HAT SPA assay, but used 6 nM purified full length p300 (purchased from Active Motif) in place of the purified p300-HAT domain.

[1] = molecular target: p300 HAT domain (residues 1287-1666) (Homo sapiens (Human), UniProt Q09472); experiment: p300 HAT SPA assay (scintillation proximity assay, acetylation of biotinylated H3(1-21) peptide); type: biochemical; settings: p300 HAT domain; average of at least 2 replicate titrations; read-out: P300 HAT SPA IC50
Summary of the method: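 Purified p300 HAT domain reaction transferred to streptavidin plates to capture biotinylated H3(1-21) peptide, incubated 1.5 hr at RT, and read by scintillation proximity. IC50 values derived from concentration-response data.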

Chain of p300 HAT domain (residues 1287-1666) (Q09472 1287-1666): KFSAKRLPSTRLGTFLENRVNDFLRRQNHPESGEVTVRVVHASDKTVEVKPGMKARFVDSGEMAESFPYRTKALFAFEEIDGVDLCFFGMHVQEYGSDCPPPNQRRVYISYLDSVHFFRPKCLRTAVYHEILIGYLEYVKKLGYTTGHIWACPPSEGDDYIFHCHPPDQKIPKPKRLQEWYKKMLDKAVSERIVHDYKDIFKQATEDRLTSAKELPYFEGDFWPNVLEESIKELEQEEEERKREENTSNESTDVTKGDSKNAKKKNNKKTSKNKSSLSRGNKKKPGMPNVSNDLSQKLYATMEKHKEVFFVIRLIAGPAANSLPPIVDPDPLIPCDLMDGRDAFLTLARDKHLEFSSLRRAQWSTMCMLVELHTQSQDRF
Chain of full length p300 (Q09472 whole entry): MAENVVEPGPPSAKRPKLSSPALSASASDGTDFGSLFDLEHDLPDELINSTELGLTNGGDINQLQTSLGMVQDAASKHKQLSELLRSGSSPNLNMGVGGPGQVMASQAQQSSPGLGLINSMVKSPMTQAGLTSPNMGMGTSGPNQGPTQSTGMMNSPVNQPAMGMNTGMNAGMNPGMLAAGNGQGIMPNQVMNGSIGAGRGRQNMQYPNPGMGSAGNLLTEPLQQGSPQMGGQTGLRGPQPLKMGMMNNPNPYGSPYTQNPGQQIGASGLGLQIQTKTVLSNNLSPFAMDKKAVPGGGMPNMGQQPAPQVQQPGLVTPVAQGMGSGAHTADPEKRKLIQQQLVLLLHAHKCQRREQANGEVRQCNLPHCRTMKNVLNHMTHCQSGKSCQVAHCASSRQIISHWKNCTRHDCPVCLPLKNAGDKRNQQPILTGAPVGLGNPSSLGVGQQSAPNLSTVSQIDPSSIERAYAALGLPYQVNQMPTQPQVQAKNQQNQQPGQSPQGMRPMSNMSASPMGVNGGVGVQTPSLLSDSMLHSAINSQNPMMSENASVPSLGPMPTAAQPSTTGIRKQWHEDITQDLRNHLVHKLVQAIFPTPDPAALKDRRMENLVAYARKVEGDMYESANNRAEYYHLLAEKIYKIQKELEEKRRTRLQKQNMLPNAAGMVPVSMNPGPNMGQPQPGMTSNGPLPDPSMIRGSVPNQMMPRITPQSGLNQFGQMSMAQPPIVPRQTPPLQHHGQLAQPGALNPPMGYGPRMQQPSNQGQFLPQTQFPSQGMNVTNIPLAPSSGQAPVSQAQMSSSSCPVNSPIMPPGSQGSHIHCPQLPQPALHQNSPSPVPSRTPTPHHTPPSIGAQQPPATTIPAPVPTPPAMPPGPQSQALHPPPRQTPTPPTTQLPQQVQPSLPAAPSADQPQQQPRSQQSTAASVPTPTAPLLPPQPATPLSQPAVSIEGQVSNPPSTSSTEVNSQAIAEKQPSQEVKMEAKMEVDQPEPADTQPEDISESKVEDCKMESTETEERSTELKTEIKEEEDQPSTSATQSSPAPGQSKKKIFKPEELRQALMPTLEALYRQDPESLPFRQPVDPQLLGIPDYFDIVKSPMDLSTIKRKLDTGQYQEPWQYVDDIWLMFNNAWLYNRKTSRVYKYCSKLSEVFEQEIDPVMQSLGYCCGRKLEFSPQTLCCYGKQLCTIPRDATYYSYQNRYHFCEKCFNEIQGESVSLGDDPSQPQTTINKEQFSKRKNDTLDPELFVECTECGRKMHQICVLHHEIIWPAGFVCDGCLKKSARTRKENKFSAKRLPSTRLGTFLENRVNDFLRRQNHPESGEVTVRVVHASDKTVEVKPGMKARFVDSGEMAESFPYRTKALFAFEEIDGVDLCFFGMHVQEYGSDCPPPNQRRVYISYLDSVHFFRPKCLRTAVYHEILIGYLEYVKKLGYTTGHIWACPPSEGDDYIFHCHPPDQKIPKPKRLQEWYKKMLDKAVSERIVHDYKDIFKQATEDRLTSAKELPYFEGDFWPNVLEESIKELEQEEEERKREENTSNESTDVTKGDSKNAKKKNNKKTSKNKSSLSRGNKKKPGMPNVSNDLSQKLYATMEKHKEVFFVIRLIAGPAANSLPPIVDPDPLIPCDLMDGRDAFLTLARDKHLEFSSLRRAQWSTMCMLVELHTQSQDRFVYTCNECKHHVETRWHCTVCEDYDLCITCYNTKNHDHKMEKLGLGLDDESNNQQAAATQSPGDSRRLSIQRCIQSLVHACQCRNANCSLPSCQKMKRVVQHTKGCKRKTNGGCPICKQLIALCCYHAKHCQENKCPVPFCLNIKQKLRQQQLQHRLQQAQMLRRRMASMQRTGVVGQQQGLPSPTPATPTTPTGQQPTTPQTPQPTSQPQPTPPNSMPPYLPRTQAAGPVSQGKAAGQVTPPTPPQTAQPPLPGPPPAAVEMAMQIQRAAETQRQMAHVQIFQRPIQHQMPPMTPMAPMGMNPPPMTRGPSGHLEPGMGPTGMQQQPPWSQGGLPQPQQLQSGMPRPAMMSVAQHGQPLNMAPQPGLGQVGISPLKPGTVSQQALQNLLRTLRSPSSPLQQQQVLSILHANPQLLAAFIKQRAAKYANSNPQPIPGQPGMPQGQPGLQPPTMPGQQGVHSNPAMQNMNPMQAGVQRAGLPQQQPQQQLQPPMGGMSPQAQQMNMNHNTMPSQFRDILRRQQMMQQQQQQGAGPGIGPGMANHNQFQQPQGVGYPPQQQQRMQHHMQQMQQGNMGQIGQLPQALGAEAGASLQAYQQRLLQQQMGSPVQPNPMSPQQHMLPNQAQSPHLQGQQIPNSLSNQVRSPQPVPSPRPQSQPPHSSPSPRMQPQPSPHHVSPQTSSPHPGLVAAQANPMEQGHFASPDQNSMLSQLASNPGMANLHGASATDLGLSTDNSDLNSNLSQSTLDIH

IC50 (full length p300) [µM]	IC50 [1] [µM]	Compound
10.6	33.9	NS(=O)(=O)c1ccc(CCNC(C(=O)c2c[nH]c3ccncc23)c2ccccc2)cc1 (racemic) [Example 31, (rac)-4-(2-((2-oxo-1-phenyl-2-(1H-pyrrolo[3,2-c]pyridin-3-yl)ethyl)amino)ethyl) benzenesulfonamide]
0.082	1.83	COc1ccccc1CCNC(C(=O)c1c[nH]c2ccccc12)c1ccccc1 (single isomer, unassigned) [6 Isomer 2]
0.269	5.14	COc1cccc(CCNC(C(=O)c2c[nH]c3ccccc23)c2ccccc2)c1 (single isomer, unassigned) [7 Isomer 2]
0.0277	0.873	COc1ccc(CCNC(C(=O)c2c[nH]c3ccccc23)c2ccccc2)cc1 (single isomer, unassigned) [8 Isomer 2]
25.9	> 60	O=C(c1c[nH]c2ccccc12)C(NCCc1ccccn1)c1ccccc1 (single isomer, unassigned) [9 Isomer 1]
0.728	33.2	O=C(c1c[nH]c2ccccc12)C(NCCc1ccccn1)c1ccccc1 (single isomer, unassigned) [9 Isomer 2]
0.63	21.2	O=C(c1c[nH]c2ccccc12)C(NCCc1cccnc1)c1ccccc1 (single isomer, unassigned) [10 Isomer 1]
0.711	19.2	O=C(c1c[nH]c2ccccc12)C(NCCc1cccnc1)c1ccccc1 (single isomer, unassigned) [10 Isomer 2]
0.204	9.94	O=C(c1c[nH]c2ccccc12)C(NCCc1ccncc1)c1ccccc1 (single isomer, unassigned) [11 Isomer 1]
0.197	7.15	O=C(c1c[nH]c2ccccc12)C(NCCc1ccncc1)c1ccccc1 (single isomer, unassigned) [11 Isomer 2]
8.5	> 60	NS(=O)(=O)c1ccc(CCNC(C(=O)c2c[nH]c3cccc(Cl)c23)c2ccccc2)cc1 (single isomer, unassigned) [12 Isomer 1]
3.94	> 60	NS(=O)(=O)c1ccc(CCNC(C(=O)c2c[nH]c3cccc(Cl)c23)c2ccccc2)cc1 (single isomer, unassigned) [12 Isomer 2]
0.472	18.1	NS(=O)(=O)c1ccc(CCNC(C(=O)c2c[nH]c3cc(Cl)ccc23)c2ccccc2)cc1 (single isomer, unassigned) [13 Isomer 1]
0.144	1.62	NS(=O)(=O)c1ccc(CCNC(C(=O)c2c[nH]c3cc(Cl)ccc23)c2ccccc2)cc1 (single isomer, unassigned) [13 Isomer 2]
9.54	> 60	NS(=O)(=O)c1ccc(CCNC(C(=O)c2c[nH]c3ccc(Cl)cc23)c2ccccc2)cc1 (single isomer, unassigned) [14 Isomer 1]
1.86	47.4	NS(=O)(=O)c1ccc(CCNC(C(=O)c2c[nH]c3ccc(Cl)cc23)c2ccccc2)cc1 (single isomer, unassigned) [14 Isomer 2]
0.378	6.98	Cc1[nH]c2ccccc2c1C(=O)C(NCCc1ccc(S(N)(=O)=O)cc1)c1ccccc1 (single isomer, unassigned) [16 Isomer 2]
0.0911	2.19	COc1ccc(CCNC(C(=O)c2c[nH]c3c(CCC(=O)N(C)C)cccc23)c2ccccc2)cc1 (single isomer, unassigned) [29 Isomer 1]
0.22	6.6	COc1ccc(CCNC(C(=O)c2c[nH]c3c(CCC(=O)N(C)C)cccc23)c2ccccc2)cc1 (single isomer, unassigned) [29 Isomer 2]
0.744	12.9	NS(=O)(=O)c1ccc(CCNC(C(=O)c2c[nH]c3cnccc23)c2ccccc2)cc1 (single isomer, unassigned) [32 Isomer 2]
1.75	> 60	NS(=O)(=O)c1ccc(CCNC(C(=O)c2c[nH]c3ncccc23)c2ccccc2)cc1 (single isomer, unassigned) [33 Isomer 1]
0.554	10	NS(=O)(=O)c1ccc(CCNC(C(=O)c2c[nH]c3ncccc23)c2ccccc2)cc1 (single isomer, unassigned) [33 Isomer 2]
1.35	39.8	Cc1nc(C(=O)C(NCCc2ccc(Cl)cc2)c2ccccc2)c2ccccn12 (single isomer, unassigned) [45 Isomer 2]

IC50 (full length p300) [µM]	IC50 [1] [µM]	Compound
13.1	9	O=C(c1cnc2ccccn12)C(NCCc1ccc(Cl)cc1)c1ccccc1 (single isomer, unassigned) [46 Isomer 1]
1.31	4.8	O=C(c1n[nH]c2ccccc12)C(NCCc1ccc(Cl)cc1)c1ccccc1 (single isomer, unassigned) [47 Isomer 1]
1.3	20.3	O=C(c1n[nH]c2ccccc12)C(NCCc1ccc(Cl)cc1)c1ccccc1 (single isomer, unassigned) [47 Isomer 2]
0.0372	0.501	CNC(=O)Cc1ccc2c(C(=O)C(NCCc3ccc(C#N)cc3)c3ccccc3)c[nH]c2c1 (single isomer, unassigned) [62 Isomer 1]
0.0513	3.34	CNC(=O)Cc1ccc2c(C(=O)C(NCCc3ccc(C#N)cc3)c3ccccc3)c[nH]c2c1 (single isomer, unassigned) [62 Isomer 2]
0.0462	2.5	CN(C)C(=O)Cc1ccc2c(C(=O)C(NCCc3ccc(C#N)cc3)c3ccccc3)c[nH]c2c1 (single isomer, unassigned) [63 Isomer 2]
0.0251	1.38	O=C(c1c[nH]c2cc(-c3ccccn3)ccc12)C(NCCc1ccc(F)cc1)c1ccccc1 (single isomer, unassigned) [105 Isomer 2]
0.819	28.8	CN(C)C(=O)c1ccc(CCNC(C(=O)c2c[nH]c3ccccc23)c2ccccc2)cc1 (single isomer, unassigned) [135 Isomer 2]
0.03	0.442	Cn1cc(-c2ccc3c(C(=O)C(NCCc4ccc(C(=O)O)cc4)c4ccccc4)c[nH]c3c2)cn1 (single isomer, unassigned) [138 Isomer 1]
0.593	18.5	COc1ccc(CCN[C@H](C(=O)c2c[nH]c3c(C(C)C)cccc23)c2ccccc2)cc1 (single isomer, unassigned) [145 Isomer 1]
0.336	4.91	CNC(=O)c1cccc2c(C(=O)C(NCCc3ccc(Cl)cc3Cl)c3ccccc3)c[nH]c12 (single isomer, unassigned) [147 Isomer 2]
0.355	8.05	CN(C)C(=O)c1cccc2c(C(=O)C(NCCc3ccc(Cl)cc3Cl)c3ccccc3)c[nH]c12 (single isomer, unassigned) [148 Isomer 2]
0.223	5.92	CN(C)CCNC(=O)c1cccc2c(C(=O)C(NCCc3ccc(Cl)cc3Cl)c3ccccc3)c[nH]c12 (single isomer, unassigned) [149 Isomer 1]
0.393	7.97	COCCNC(=O)c1cccc2c(C(=O)C(NCCc3ccc(Cl)cc3Cl)c3ccccc3)c[nH]c12 (single isomer, unassigned) [150 Isomer 1]
0.00784	0.345	CN(C)CCNC(=O)c1ccc2c(C(=O)C(NCCc3ccc(Cl)cc3Cl)c3ccccc3)c[nH]c2c1 (single isomer, unassigned) [153 Isomer 1]
0.00572	0.0798	CN(C)CCNC(=O)c1ccc2c(C(=O)C(NCCc3ccc(Cl)cc3Cl)c3ccccc3)c[nH]c2c1 (single isomer, unassigned) [153 Isomer 2]
0.0377	0.325	COCCNC(=O)c1ccc2c(C(=O)C(NCCc3ccc(Cl)cc3Cl)c3ccccc3)c[nH]c2c1 (single isomer, unassigned) [154 Isomer 1]
0.00895	1.62	COCCNC(=O)c1ccc2c(C(=O)C(NCCc3ccc(Cl)cc3Cl)c3ccccc3)c[nH]c2c1 (single isomer, unassigned) [154 Isomer 2]
0.285	4.09	N#Cc1ccc(CCNC(C(=O)c2c[nH]c3cc(C(=O)O)ccc23)c2ccccc2)cc1 (single isomer, unassigned) [155 Isomer 2]
0.0291	0.584	CNC(=O)c1ccc2c(C(=O)C(NCCc3ccc(C#N)cc3)c3ccccc3)c[nH]c2c1 (single isomer, unassigned) [156 Isomer 1]
0.274	5.9	O=C(O)CCc1ccc2c(C(=O)C(NCCc3ccc(F)cc3)c3ccccc3)c[nH]c2c1 (single isomer, unassigned) [159 Isomer 2]
0.19	3.66	N#Cc1ccc(CCNC(C(=O)c2c[nH]c3cc(C(=O)NCCN4CCCC4=O)ccc23)c2ccccc2)cc1 (single isomer, unassigned) [164 Isomer 1]
0.00603	0.14	N#Cc1ccc(CCNC(C(=O)c2c[nH]c3cc(C(=O)NCCN4CCCC4=O)ccc23)c2ccccc2)cc1 (single isomer, unassigned) [164 Isomer 2]
